From article PMC11791882

Test: on-resin side-chain lactamisation Lys(NH2)/Glu(COOH) after Pd(0)/PhSiH3 removal of Alloc/OAll; DIC 30 eq + OxymaPure 30 eq; ProTide resin 0.19 mmol/g, ca. 300 mL DCM, 2 days
Conditions: the molecule shown is the open-chain precursor, 57-membered ring, scale: % HPLC purity of cyclic product

Substance	ring closure, conversion by HPLC (48.0 h)	ring closure, conversion by HPLC (168.0 h)
Fmoc-Thr(tBu)-Lys(NH2)-Asn(Trt)-His(Trt)-Gln(Trt)-Gly-Pro-Gly-Arg(Pbf)-Gly-Asp(OtBu)-Gln(Trt)-Thr(tBu)-Thr(tBu)-Pro-Ala-Gln(Trt)-Glu(COOH)-Ala-Gln(Trt)-Thr(tBu)-Gly-Trp(Boc)-Val-Gln(Trt)-Asn(Trt)-NH-ProTide resin	88.6	
Fmoc-Thr(tBu)-Lys(NH2)-Asn(Trt)-His(Trt)-Gln(Trt)-Ser(tBu)-Ala-Gln(Trt)-Arg(Pbf)-Gly-Asp(OtBu)-Leu-Thr(tBu)-Thr(tBu)-Pro-Ala-Gln(Trt)-Glu(COOH)-Ala-Gln(Trt)-Thr(tBu)-Gly-Trp(Boc)-Val-Gln(Trt)-Asn(Trt)-NH-ProTide resin	73.9	
Fmoc-Thr(tBu)-Lys(NH2)-Asn(Trt)-His(Trt)-Gln(Trt)-Gly-Leu-Gly-Arg(Pbf)-Gly-Asp(OtBu)-Gln(Trt)-Thr(tBu)-Thr(tBu)-Pro-Ala-Gln(Trt)-Glu(COOH)-Ala-Gln(Trt)-Thr(tBu)-Gly-Trp(Boc)-Val-Gln(Trt)-Asn(Trt)-NH-ProTide resin	80.8	
Fmoc-Thr(tBu)-Lys(NH2)-Asn(Trt)-His(Trt)-Gln(Trt)-Gly-Pro-Gly-Arg(Pbf)-Gly-Asp(OtBu)-Gln(Trt)-Thr(tBu)-Thr(tBu)-Leu-Ala-Gln(Trt)-Glu(COOH)-Ala-Gln(Trt)-Thr(tBu)-Gly-Trp(Boc)-Val-Gln(Trt)-Asn(Trt)-NH-ProTide resin		0
